Test results as given in ChEMBL document CHEMBL4184222, “A multifaceted approach to identify non-specific enzyme inhibition: Application to Mycobacterium tuberculosis shikimate kinase” (Bioorg Med Chem Lett, 2018).
In brackets after ≈: the same amount, converted by molar mass.

Tests used:
[1] = tested on: Mycobacterium tuberculosis; test: Inhibition of Mycobacterium tuberculosis shikimate kinase assessed as reduction in S3P production at <50 uM pre-incubated for 30 mins before ATP and shikimate substrate addition by LC-MS assay
[2] = tested on: Mycobacterium tuberculosis; test: Antimycobacterial activity against Mycobacterium tuberculosis H37Rv; type: functional
[3] = Aggregation property of the compound in ammonium acetate buffer at pH 7.6 assessed as light scattering intensity counts at 100 uM in absence of Triton X-100 by dynamic light scattering method; type: physicochemical; conditions: pH 7.6, 100 µM
[4] = Aggregation property of the compound in ammonium acetate buffer at pH 7.6 assessed as particle size at 100 uM in absence of Triton X-100 by dynamic light scattering method; type: physicochemical; conditions: pH 7.6, 100 µM
[5] = Aggregation property of the compound in ammonium acetate buffer at pH 7.6 assessed as light scattering intensity counts at 100 uM in presence of Triton X-100 by dynamic light scattering method; type: physicochemical; conditions: pH 7.6, 100 µM
[6] = Aggregation property of the compound in ammonium acetate buffer at pH 7.6 assessed as particle size at 100 uM in presence of Triton X-100 by dynamic light scattering method; type: physicochemical; conditions: pH 7.6, 100 µM
[7] = Aggregation property of the compound in water at pH 7 assessed as particle size at 100 uM in presence of Triton X-100 by dynamic light scattering method; type: physicochemical; conditions: buffer, pH 7, 100 µM
[8] = Aggregation property of the compound in water at pH 7 assessed as light scattering intensity counts at 100 uM in presence of Triton X-100 by dynamic light scattering method; type: physicochemical; conditions: buffer, pH 7, 100 µM
[9] = Aggregation property of the compound in water at pH 7 assessed as particle size at 100 uM in absence of Triton X-100 by dynamic light scattering method; type: physicochemical; conditions: buffer, pH 7, 100 µM
[10] = Aggregation property of the compound in water at pH 7 assessed as light scattering intensity counts at 100 uM in absence of Triton X-100 by dynamic light scattering method; type: physicochemical; conditions: buffer, pH 7, 100 µM

Structure (SMILES) | inhibition [1] | IC90 [2] | Activity [3] | Activity [4] | Activity [5] | Activity [6] | Activity [7] | Activity [8] | Activity [9] | Activity [10]
CCSc1ccc(C(=O)Nc2nnc(-c3ccc4c(c3)CCCC4)o2)cc1 | > 90% | 1.93 µg/mL (≈ 5.09 µM) | 340 kCounts | 2005 nm | 158 kCounts | 480 nm | 410 nm | 152 kCounts | 1921 nm | 330 kCounts
Cc1ccc(-c2nnc(NC(=O)c3ccccc3Cl)o2)c(C)c1 | > 90% | < 0.2 µg/mL | 270 kCounts | 1321 nm | 115 kCounts | 212 nm | 203 nm | 95 kCounts | 1301 nm | 255 kCounts
Cc1cc(C)c2sc(N3CCCC3)nc2c1 | > 90% | 1.75 µg/mL (≈ 7.53 µM) | 300 kCounts | 1750 nm | 139 kCounts | 373 nm | 343 nm | 130 kCounts | 1762 nm | 290 kCounts
CCCCC(=O)Nc1nnc(-c2ccc3c(c2)CCCC3)o1 | > 90% | 3.04 µg/mL (≈ 10.2 µM) | 280 kCounts | 1432 nm | 131 kCounts | 255 nm | 259 nm | 100 kCounts | 1324 nm | 260 kCounts
CC(C)(C)C(=O)Nc1nnc(-c2ccc(Br)cc2)o1 | > 90% | < 0.2 µg/mL | 260 kCounts | 1211 nm | 100 kCounts | 201 nm | 198 nm | 92 kCounts | 1192 nm | 250 kCounts
CCOc1ccc(C(=O)Nc2nnc(-c3ccc(C)cc3C)o2)cc1 | > 90% | 1.8 µg/mL (≈ 5.34 µM) | 300 kCounts | 1620 nm | 123 kCounts | 354 nm | 275 nm | 122 kCounts | 1583 nm | 280 kCounts
Cc1ccc(C)c(-c2nnc(NC(=O)c3ccc([N+](=O)[O-])s3)o2)c1 | > 90% | 3.09 µg/mL (≈ 8.97 µM) | 240 kCounts | 986 nm | 85 kCounts | 151 nm | 176 nm | 80 kCounts | 973 nm | 237 kCounts
CCc1cccc2sc(N(CCCn3ccnc3)C(=O)/C=C/c3cccs3)nc12 | > 90% | 0.83 µg/mL (≈ 1.96 µM) | 400 kCounts | 3776 nm | 286 kCounts | 817 nm | 908 nm | 270 kCounts | 3823 nm | 380 kCounts
O=C(c1cccs1)N(CCCn1ccnc1)c1nc2c(F)cc(F)cc2s1 | > 90% | 2.38 µg/mL (≈ 5.88 µM) | 321 kCounts | 1934 nm | 150 kCounts | 470 nm | 398 nm | 142 kCounts | 1852 nm | 300 kCounts
